In US10231954B2, “Neurodegenerative therapies” (LYTIX BIOPHARMA AS, priority 2014, dated 2019):
Where two headings read alike, the source gives them in different places.

How the values were obtained:
[1] = biological target: MKK1 (Homo sapiens, UniProt Q02750); experiment: Kinase profiling MKK1; type: biochemical; settings: for remaining activity at 100 µM: read-out: residual kinase activity, MKK1
Text: (§1) Any value less that 25 is considered to be highly significant inhibition.

[2] = biological target: T1, PDK1 (Homo sapiens, UniProt O15530); experiment: Kinase profiling PDK1; type: biochemical; settings: for remaining activity at 100 µM: read-out: residual kinase activity, PDK1
T1 sequence (O15530 1-556): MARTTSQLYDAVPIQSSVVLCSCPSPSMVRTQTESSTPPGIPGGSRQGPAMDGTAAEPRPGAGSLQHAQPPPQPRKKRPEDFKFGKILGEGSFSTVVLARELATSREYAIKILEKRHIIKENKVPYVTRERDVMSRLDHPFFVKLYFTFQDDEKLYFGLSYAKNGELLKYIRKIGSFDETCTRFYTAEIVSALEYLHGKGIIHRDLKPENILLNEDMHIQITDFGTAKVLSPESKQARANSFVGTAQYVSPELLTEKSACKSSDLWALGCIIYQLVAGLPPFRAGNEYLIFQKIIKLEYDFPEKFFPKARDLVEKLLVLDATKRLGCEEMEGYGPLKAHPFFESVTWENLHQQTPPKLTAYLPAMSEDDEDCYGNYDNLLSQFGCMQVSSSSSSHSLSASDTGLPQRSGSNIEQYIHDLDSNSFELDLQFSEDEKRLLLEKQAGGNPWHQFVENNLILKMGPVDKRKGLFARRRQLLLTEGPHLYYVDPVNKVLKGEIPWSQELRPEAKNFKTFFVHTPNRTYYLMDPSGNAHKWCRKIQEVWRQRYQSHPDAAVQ
Text: as §1

[3] = biological target: T2, SGK1 (Homo sapiens, UniProt O00141); experiment: Kinase profiling SGK1; type: biochemical; settings: for remaining activity at 100 µM: read-out: residual kinase activity, SGK1
T2 sequence (O00141 1-431): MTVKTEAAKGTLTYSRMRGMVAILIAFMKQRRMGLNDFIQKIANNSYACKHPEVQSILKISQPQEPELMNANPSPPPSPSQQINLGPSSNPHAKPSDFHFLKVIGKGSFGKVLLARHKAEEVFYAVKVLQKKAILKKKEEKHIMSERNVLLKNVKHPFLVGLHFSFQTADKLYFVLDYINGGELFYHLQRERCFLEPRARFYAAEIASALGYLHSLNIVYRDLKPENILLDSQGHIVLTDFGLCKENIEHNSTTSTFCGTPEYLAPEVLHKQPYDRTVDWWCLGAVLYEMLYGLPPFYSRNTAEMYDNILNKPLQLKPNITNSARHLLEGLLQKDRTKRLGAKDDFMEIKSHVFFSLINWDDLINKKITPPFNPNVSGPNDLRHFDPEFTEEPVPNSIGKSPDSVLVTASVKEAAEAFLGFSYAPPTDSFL
Text: as §1

[4] = biological target: T3, PKCz (Homo sapiens, UniProt Q05513); experiment: Kinase profiling PKCz; type: biochemical; settings: for remaining activity at 100 µM: read-out: residual kinase activity, PKCz
T3 sequence (Q05513 1-592): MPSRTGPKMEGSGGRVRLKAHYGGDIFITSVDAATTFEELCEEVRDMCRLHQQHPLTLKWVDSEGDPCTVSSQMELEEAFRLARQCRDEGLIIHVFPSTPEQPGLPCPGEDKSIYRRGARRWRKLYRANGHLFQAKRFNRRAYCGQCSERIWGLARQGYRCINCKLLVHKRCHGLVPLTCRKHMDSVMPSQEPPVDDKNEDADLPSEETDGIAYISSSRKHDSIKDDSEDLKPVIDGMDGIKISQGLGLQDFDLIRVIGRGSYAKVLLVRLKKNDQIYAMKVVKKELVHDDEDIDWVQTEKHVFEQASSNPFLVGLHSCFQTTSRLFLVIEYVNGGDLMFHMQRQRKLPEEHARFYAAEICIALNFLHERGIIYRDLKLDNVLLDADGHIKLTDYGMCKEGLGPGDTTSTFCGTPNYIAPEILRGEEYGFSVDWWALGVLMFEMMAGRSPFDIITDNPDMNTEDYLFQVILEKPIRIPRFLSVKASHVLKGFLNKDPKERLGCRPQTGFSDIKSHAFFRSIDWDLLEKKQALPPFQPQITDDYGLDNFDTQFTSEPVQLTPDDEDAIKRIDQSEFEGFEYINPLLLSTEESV
Text: as §1

[5] = biological target: MSK1 (Homo sapiens, UniProt O75582); experiment: Kinase profiling MSK1; type: biochemical; settings: for remaining activity at 100 µM: read-out: residual kinase activity, MSK1
Sequence of MSK1 (O75582 whole entry, species assumed): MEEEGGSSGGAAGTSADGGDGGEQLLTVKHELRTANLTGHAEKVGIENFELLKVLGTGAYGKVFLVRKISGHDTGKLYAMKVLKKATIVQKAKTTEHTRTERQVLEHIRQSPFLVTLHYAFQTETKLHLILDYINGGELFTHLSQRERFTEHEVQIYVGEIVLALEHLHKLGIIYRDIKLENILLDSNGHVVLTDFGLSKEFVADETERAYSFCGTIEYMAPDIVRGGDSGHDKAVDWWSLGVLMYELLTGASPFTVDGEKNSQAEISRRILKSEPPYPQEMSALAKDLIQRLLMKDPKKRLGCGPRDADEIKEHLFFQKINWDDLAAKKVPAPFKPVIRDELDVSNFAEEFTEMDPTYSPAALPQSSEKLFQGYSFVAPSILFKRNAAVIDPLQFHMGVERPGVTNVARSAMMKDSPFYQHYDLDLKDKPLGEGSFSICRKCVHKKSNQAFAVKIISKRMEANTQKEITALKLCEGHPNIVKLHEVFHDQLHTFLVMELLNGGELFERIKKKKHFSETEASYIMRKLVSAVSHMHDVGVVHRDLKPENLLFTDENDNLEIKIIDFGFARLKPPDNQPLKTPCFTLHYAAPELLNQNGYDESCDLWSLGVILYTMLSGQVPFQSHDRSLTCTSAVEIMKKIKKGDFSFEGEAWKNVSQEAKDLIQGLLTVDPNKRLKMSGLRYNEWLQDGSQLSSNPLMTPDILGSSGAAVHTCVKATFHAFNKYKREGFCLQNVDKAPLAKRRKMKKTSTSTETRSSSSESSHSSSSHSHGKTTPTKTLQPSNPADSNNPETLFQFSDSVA
Text: as §1

[6] = system: AMPK (hum); experiment: Kinase profiling AMPK (hum); type: biochemical, human
Text: as §1

[7] = biological target: T4, TBK1 (Homo sapiens, UniProt Q9UHD2); experiment: Kinase profiling TBK1; type: biochemical; settings: for remaining activity at 100 µM: read-out: residual kinase activity, TBK1
T4 sequence (Q9UHD2 1-729): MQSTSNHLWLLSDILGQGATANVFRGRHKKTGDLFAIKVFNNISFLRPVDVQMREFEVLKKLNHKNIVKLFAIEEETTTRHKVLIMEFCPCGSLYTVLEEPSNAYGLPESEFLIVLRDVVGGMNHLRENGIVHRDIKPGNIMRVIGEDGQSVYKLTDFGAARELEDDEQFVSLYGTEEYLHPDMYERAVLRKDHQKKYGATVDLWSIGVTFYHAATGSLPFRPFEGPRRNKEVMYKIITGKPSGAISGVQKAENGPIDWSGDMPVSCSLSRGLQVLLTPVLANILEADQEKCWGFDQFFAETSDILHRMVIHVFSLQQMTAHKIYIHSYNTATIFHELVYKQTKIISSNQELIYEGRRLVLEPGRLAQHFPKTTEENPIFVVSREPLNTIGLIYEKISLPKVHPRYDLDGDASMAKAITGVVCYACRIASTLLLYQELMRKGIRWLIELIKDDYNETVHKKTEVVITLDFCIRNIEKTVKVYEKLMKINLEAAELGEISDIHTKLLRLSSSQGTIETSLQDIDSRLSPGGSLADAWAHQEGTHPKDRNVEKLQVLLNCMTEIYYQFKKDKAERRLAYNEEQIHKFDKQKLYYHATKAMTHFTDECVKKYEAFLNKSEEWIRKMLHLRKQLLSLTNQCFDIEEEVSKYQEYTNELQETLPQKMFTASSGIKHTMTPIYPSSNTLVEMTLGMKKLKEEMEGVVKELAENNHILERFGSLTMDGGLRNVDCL
Text: as §1

[8] = biological target: SRPK1 (Homo sapiens, UniProt Q96SB4); experiment: Kinase profiling SRPK1; type: biochemical; settings: for remaining activity at 100 µM: read-out: residual kinase activity, SRPK1
Sequence of SRPK1 (Q96SB4 whole entry, species assumed): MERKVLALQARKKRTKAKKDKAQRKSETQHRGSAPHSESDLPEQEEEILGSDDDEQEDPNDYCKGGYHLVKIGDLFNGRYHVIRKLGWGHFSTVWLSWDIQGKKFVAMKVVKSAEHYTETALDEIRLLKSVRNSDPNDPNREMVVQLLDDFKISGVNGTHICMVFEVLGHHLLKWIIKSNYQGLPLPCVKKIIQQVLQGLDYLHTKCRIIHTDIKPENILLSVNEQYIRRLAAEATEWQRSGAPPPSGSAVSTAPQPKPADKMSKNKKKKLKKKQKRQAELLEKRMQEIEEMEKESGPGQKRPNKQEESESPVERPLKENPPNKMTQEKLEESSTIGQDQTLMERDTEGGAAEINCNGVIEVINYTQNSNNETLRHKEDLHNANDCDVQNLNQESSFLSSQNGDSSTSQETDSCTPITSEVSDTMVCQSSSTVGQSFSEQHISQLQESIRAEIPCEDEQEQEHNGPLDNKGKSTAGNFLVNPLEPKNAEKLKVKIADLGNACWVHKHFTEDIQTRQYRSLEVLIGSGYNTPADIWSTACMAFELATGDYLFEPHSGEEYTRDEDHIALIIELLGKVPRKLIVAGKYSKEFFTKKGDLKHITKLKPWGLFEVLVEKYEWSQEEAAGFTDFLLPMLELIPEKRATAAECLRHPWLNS
Text: as §1

[9] = biological target: EF2K (Homo sapiens, UniProt O00418); experiment: Kinase profiling EF2K; type: biochemical; settings: for remaining activity at 100 µM: read-out: residual kinase activity, EF2K
Text: as §1

[10] = biological target: Src (Homo sapiens, UniProt P12931); experiment: Kinase profiling Src; type: biochemical; settings: for remaining activity at 100 µM: read-out: residual kinase activity, Src
Sequence of Src (P12931 whole entry, species assumed): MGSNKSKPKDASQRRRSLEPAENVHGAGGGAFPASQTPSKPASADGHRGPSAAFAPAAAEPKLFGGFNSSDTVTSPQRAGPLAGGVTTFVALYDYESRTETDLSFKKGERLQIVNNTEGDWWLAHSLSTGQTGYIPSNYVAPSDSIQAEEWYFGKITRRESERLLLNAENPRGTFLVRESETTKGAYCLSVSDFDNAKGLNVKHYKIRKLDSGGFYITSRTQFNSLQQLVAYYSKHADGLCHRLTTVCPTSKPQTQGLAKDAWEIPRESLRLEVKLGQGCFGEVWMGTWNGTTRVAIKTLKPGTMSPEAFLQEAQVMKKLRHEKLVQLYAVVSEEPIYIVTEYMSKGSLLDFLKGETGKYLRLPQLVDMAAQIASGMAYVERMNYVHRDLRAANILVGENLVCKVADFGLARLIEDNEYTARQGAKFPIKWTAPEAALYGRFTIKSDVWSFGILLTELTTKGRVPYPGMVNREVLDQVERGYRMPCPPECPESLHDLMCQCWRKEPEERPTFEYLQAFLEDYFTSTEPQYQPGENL
Text: as §1

[11] = biological target: Lck (Homo sapiens, UniProt P06239); experiment: Kinase profiling Lck; type: biochemical; settings: for remaining activity at 100 µM: read-out: residual kinase activity, Lck
Sequence of Lck (P06239 whole entry, species assumed): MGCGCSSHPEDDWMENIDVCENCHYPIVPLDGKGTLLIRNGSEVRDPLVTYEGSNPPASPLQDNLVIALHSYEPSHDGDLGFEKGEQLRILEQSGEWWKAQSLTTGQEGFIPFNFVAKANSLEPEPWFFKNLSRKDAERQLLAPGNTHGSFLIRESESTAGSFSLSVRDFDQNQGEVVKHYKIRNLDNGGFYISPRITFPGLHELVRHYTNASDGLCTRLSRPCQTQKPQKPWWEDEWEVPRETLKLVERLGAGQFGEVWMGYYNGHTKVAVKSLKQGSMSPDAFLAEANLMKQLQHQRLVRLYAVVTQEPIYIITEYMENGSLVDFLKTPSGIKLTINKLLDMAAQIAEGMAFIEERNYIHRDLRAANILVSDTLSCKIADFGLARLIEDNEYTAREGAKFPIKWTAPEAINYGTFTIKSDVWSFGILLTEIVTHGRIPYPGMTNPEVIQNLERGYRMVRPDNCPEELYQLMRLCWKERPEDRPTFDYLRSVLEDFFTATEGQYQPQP
Text: as §1

[12] = biological target: SYK (Homo sapiens, UniProt P43405); experiment: Kinase profiling SYK; type: biochemical; settings: for remaining activity at 100 µM: read-out: residual kinase activity, SYK
Text: as §1

[13] = biological target: HER4 (Homo sapiens, UniProt Q15303); experiment: Kinase profiling HER4; type: biochemical; settings: for remaining activity at 100 µM: read-out: residual kinase activity, HER4
Sequence of HER4 (Q15303 26-1308, species assumed): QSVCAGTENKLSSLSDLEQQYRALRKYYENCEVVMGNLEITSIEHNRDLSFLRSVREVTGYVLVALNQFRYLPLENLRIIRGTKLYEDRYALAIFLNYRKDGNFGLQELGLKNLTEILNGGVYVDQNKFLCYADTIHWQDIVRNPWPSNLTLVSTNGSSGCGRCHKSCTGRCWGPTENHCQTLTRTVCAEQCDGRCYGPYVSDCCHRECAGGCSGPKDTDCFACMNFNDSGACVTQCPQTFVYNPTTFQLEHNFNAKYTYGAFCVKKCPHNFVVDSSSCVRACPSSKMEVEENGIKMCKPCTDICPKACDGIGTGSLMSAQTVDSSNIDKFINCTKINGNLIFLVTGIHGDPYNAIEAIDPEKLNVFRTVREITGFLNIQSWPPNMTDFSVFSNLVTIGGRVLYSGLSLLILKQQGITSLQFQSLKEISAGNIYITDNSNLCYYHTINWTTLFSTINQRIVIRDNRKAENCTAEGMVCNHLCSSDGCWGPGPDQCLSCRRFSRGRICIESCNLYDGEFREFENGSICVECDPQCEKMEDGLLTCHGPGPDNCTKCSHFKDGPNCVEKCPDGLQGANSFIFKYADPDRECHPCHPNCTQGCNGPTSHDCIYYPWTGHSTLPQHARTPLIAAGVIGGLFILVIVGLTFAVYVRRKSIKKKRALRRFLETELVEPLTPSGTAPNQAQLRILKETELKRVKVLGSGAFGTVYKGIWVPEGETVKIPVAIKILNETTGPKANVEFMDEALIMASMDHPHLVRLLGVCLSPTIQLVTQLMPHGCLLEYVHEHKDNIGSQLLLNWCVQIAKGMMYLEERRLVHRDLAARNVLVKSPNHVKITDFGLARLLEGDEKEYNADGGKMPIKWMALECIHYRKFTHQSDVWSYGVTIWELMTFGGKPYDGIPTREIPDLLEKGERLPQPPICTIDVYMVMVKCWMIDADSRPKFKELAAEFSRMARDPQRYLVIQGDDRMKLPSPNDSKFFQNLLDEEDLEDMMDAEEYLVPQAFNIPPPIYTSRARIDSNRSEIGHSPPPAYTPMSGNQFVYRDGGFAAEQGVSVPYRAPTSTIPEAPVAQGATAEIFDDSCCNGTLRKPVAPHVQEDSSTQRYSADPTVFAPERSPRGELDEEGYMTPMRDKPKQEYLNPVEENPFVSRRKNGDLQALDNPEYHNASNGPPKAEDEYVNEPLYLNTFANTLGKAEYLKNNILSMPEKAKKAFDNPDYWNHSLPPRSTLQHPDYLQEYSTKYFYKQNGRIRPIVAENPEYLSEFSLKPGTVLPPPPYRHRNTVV
Text: as §1

[14] = 100 micromolar inhibitor concentration, 100 is no change
[15] = 100 micromolar inhibitor, 100 = no change

Sequence of MKK1 (Q02750 whole entry, species assumed): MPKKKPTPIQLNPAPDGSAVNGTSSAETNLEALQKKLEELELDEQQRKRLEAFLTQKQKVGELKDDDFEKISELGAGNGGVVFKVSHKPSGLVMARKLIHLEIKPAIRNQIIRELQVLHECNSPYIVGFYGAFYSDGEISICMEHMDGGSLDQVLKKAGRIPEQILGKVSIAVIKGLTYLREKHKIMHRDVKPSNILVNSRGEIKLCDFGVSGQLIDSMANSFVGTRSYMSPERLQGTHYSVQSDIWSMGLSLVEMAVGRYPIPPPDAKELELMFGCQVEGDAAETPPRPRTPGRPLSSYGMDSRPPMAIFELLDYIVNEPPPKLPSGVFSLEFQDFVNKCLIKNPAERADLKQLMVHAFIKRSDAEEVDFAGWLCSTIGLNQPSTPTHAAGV

| Compound | residual kinase activity, AMPK (hum) [6, 14] | residual kinase activity, MKK1 [1, 14] | residual kinase activity, PDK1 [2, 14] | residual kinase activity, SGK1 [3, 14] | residual kinase activity, PKCz [4, 14] | residual kinase activity, MSK1 [5, 14] | residual kinase activity, TBK1 [7, 14] | residual kinase activity, SRPK1 [8, 14] | residual kinase activity, EF2K [9, 14] | residual kinase activity, Src [10, 14] | residual kinase activity, Lck [11, 14] | residual kinase activity, SYK [12, 14] | residual kinase activity, HER4 [13, 14] | other results |
| --- | --- | --- | --- | --- | --- | --- | --- | --- | --- | --- | --- | --- | --- | --- |
| CC(=O)Nc1nc2cc(C(F)(F)F)ccc2s1 [Compound 03-73] | 62 |  |  |  |  |  |  |  |  |  |  |  |  | remaining activity at 100 µM [1, 14]: 96%; remaining activity at 100 µM [2, 14]: 105%; remaining activity at 100 µM [3, 14]: 77%; remaining activity at 100 µM [4, 14]: 97%; remaining activity at 100 µM [5, 14]: 91%; remaining activity at 100 µM [7, 14]: 64%; remaining activity at 100 µM [8, 14]: 72%; remaining activity at 100 µM [9, 14]: 109%; remaining activity at 100 µM [10, 14]: 74%; remaining activity at 100 µM [11, 14]: 101%; remaining activity at 100 µM [12, 14]: 74%; remaining activity at 100 µM [13, 14]: 110% |
| CC(=O)Nc1cccc(NC(=O)c2nc3ccc(O)cc3s2)c1 [Compound 03-07, N-(3-acetamidophenyl)-6-hydroxybenzo[d]thiazole-2-carboxamide] |  |  |  |  |  |  |  |  |  |  |  |  |  | remaining activity at 100 µM [1, 15]: 85%; remaining activity at 100 µM [2, 15]: 72%; remaining activity at 100 µM [3, 15]: 64%; remaining activity at 100 µM [4, 15]: 107%; remaining activity at 100 µM [5, 15]: 62%; residual kinase activity, AMPK (hum) [6, 15]: 34; remaining activity at 100 µM [7, 15]: 92%; remaining activity at 100 µM [8, 15]: 27%; remaining activity at 100 µM [9, 15]: 91%; remaining activity at 100 µM [10, 15]: 101%; remaining activity at 100 µM [11, 15]: 88%; remaining activity at 100 µM [12, 15]: 102%; remaining activity at 100 µM [13, 15]: 50% |
| O=C(Nc1nc2cc(O)ccc2s1)c1cccnc1 [Compound 03-33] | 87 | 89 | 100 | 86 | 105 | 92 | 97 | 58 | 106 | 75 | 105 | 86 | 48 |  |
| O=C(Nc1nc2ccc(O)cc2s1)c1ccccc1 [Compound 03-60] | 27 | 49 | 98 | 41 | 80 | 31 | 36 | 3 | 107 | 33 | 92 | 64 | 16 |  |
| CC(=O)Nc1nc2ccc(C(F)(F)F)cc2s1 [Compound 01-90] | 74 |  |  |  |  |  |  |  |  |  |  |  |  | remaining activity at 100 µM [1, 14]: 80%; remaining activity at 100 µM [2, 14]: 93%; remaining activity at 100 µM [3, 14]: 69%; remaining activity at 100 µM [4, 14]: 81%; remaining activity at 100 µM [5, 14]: 87%; remaining activity at 100 µM [7, 14]: 83%; remaining activity at 100 µM [8, 14]: 41%; remaining activity at 100 µM [9, 14]: 103%; remaining activity at 100 µM [10, 14]: 63%; remaining activity at 100 µM [11, 14]: 53%; remaining activity at 100 µM [12, 14]: 100%; remaining activity at 100 µM [13, 14]: 97% |
| O=C(Nc1nc2ccc(O)cc2s1)c1ccncc1 [Compound 08-42] | 65 | 87 | 83 | 60 | 76 | 92 | 61 | 19 | 79 | 62 | 79 | 90 | 40 |  |
| O=C(Nc1nc2cc(O)ccc2s1)c1ccccn1 [Compound 03-13] | 71 | 107 | 104 | 74 | 102 | 100 | 73 | 57 | 94 | 70 | 77 | 106 | 98 |  |
